Laboratory results taken from patent US7763585B2, “Methods for inhibiting tumor cell proliferation” (priority 2003, dated 2010).
Read-outs that look alike come from different tables or passages of the source.

How the values were obtained:
Stat3:Stat3 = molecular target: T1, Stat3:Stat3 (Mus musculus, UniProt P42227); assay: EMSA, disruption of Stat3:Stat3 DNA-binding activity in vitro (hSIE probe); type: biochemical; conditions: for Level of DNA-binding activity of Stat3 (EMSA): EGF-stimulated fibroblast nuclear extracts, 30 min preincubation, FIG. 1A; for IC50: nuclear extracts pre-incubated 30 min at room temperature, read-out: IC50 for disruption of STAT DNA-binding activity in vitro, Stat3:Stat3
T1 construct: endogenous in cells; host or cells: EGF-stimulated fibroblasts (nuclear extract)
T1 sequence (P42227 2-770 limits assumed): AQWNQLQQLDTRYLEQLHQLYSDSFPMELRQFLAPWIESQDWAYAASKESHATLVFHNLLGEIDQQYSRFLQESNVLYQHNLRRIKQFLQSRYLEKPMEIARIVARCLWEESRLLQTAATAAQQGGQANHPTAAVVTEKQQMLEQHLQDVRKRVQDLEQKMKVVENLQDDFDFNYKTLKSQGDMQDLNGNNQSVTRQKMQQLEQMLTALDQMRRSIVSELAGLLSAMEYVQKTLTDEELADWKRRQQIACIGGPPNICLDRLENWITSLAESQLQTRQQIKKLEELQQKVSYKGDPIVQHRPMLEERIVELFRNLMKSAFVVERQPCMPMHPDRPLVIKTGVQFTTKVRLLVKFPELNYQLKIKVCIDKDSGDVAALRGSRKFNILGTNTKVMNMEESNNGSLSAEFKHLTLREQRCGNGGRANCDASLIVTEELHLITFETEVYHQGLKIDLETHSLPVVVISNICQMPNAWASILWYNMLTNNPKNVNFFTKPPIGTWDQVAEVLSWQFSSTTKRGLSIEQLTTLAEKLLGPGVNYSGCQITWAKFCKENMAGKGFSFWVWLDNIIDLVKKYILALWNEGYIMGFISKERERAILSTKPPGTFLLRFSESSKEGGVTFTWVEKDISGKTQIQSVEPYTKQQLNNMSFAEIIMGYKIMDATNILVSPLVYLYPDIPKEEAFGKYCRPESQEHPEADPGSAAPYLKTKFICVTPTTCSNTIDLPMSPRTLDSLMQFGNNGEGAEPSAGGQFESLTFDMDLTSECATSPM
Protocol: (§1) FIGS. 1A-D are photographs showing EMSA analyses of DNA-binding activities and effects of platinum complexes. Nuclear extracts containing activated Stat1, Stat3 and Stat5 are treated with the indicated concentrations of platinum complex ISSCPA-1, ISSCPA-3, ISSCPA-7, or PtCl4 for 30 min at room temperature prior to incubation with radiolabeled oligonucleotide probes. […] Positions of complexes of DNA with STAT, E2F1 or NFκB (p65, p50) in gel are labeled. Control lanes represent nuclear extracts that are not pre-incubated with platinum complexes.
(§2) Nuclear extracts were prepared from cell lines and used for EMSA as previously described (Turkson et al., 1998; Yu et al., 1995; Garcia et al., 1997). In some cases, cells were pre-treated with platinum complexes for the indicated times prior to harvesting. Where cells were stimulated with EGF (6 ng/ml), duration of treatment was 15 min. Nuclear extracts were pre-incubated with compounds for 30 min at room temperature prior to incubation with radiolabeled probe. The ^32P-radiolabeled oligonucleotide probes used are hSIE (high affinity sis-inducible element, m67 variant, 5′-[…]-3′) (SEQ ID NO:1) that binds both Stat1 and Stat3 (Garcia et al., 1997; Wagner et al., 1990), MGFe (mammary gland factor element from the bovine β-casein gene promoter, 5′-AGATTTCTAGGAATTCAA-3′) (SEQ ID NO:2) that binds Stat1 and Stat5 (Gouilleux et al., 1995; Seidel et al., 1995), the NF-κB binding oligo (5′-[…]-3′) (SEQ ID NO:3), and the oligonucleotide sequence from the DHFR promoter that binds E2F1.
(§3) Platinum compounds were evaluated for inhibitory activity against STAT DNA-binding in vitro.

Stat1:Stat3 = molecular target: T2, Stat1:Stat3 (Mus musculus, UniProt P42225+P42227); assay: EMSA, disruption of Stat1:Stat3 DNA-binding activity in vitro (hSIE probe); type: biochemical
T2 construct: endogenous in cells; host or cells: EGF-stimulated fibroblasts (nuclear extract)
T2 sequence (P42227 2-770 limits assumed, one chain of several): as the sequence (P42227 2-770 limits assumed) above
Protocol: as §1, §2, §3

Stat1:Stat1 = molecular target: T3, Stat1:Stat1 (Mus musculus, UniProt P42225); assay: EMSA, disruption of Stat1:Stat1 DNA-binding activity in vitro (hSIE probe); type: biochemical; conditions: for Level of DNA-binding activity of Stat1 (EMSA): EGF-stimulated fibroblast nuclear extracts, 30 min preincubation, FIG. 1A
T3 construct: endogenous in cells; host or cells: EGF-stimulated fibroblasts (nuclear extract)
T3 sequence (P42225 2-749 limits assumed): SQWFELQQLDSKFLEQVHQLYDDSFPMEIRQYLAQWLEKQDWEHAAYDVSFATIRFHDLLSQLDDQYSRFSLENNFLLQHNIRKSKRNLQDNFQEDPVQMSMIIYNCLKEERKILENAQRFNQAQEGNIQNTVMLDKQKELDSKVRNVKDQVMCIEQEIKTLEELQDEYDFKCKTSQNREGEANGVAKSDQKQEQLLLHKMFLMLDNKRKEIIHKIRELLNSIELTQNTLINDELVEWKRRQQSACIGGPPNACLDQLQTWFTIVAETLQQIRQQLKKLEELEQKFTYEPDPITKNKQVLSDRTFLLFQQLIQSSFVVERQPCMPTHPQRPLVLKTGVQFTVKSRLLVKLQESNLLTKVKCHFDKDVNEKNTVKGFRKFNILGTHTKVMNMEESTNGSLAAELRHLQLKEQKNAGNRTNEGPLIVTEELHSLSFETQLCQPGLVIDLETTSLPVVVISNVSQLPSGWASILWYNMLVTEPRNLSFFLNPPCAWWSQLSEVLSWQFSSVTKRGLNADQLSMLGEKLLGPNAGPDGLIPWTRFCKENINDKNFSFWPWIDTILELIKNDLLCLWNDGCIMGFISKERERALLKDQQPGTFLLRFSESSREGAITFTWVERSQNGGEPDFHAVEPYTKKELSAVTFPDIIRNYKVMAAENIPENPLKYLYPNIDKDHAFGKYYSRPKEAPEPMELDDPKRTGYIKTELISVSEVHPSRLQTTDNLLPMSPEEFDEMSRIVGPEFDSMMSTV
Protocol: as §1, §2, §3

Stat5 = assay: EMSA, Stat5 DNA-binding activity in vitro (MGFe probe); type: biochemical, mouse; conditions: FIG. 1B
Protocol: as §1, §2, §3

[1] = system: Stat3-independent luciferase reporter (pRLSRE); assay: Stat3-independent renilla luciferase reporter in NIH3T3/v-Src/pRLSRE; type: cell-based, mouse; conditions: FIG. 4
Protocol: FIGS. 4A-B show inhibition of Stat3-mediated gene expression in intact cells by platinum complexes. v-Src-transformed mouse fibroblasts that stably express Stat3-dependent (NIH3T3/v-Src/pLucTKS3) and Stat3-independent (NIH3T3/v-Src/pRLSRE) luciferase reporters were treated with platinum complexes for the indicated times. Cytosolic extracts were then prepared from cells for Stat3-dependent firefly luciferase activity (FIG. 4A) and Stat3-independent renilla luciferase measurements (FIG. 4B). Values are the means and S.D. of five independent assays. […]
Cytosolic lysates preparation from fibroblasts for luciferase assays or from baculovirus-infected Sf-9 insect cells have been previously described (Turkson et al., 1998; Turkson et al., 2001; Turkson et al., 1999; Zhang et al., 2000). Luciferase assays were performed as outlined in the supplier's (Promega) manual and measured with a luminometer. […]

SMILES | Level of DNA-binding activity of Stat3 (EMSA) (Stat3:Stat3) | IC50 (Stat3:Stat3) [µM] | IC50 (Stat1:Stat3) [µM] | IC50 (Stat1:Stat1) [µM] | Level of DNA-binding activity of Stat1 (EMSA) (Stat1:Stat1; hSIE probe) | Inhibitory effect on Stat5 DNA-binding activity (EMSA) (Stat5) | Induction of Stat3-independent luciferase activity [1] | IC50 (Stat1:Stat3; nuclear extracts pre-incubated 30 min at room temperature, hSIE probe, read-out: IC50 for disruption of STAT DNA-binding activity in vitro, Stat1:Stat3) [µM] | IC50 (Stat1:Stat1; nuclear extracts pre-incubated 30 min at room temperature, hSIE probe, read-out: IC50 for disruption of STAT DNA-binding activity in vitro, Stat1:Stat1) [µM]
O=[N+]([O-])[Pt]1([Cl])([Cl])([Cl])[NH]CC[NH]1 [ISS CPA-1] | dose-dependent reduction | 5 | 9.3 | 20 | dose-dependent reduction | much reduced inhibitory effect | little or no effect | – | –
[NH2][Pt]([NH2])([Cl])([Cl])([Cl])[N+](=O)[O-] [ISS CPA-7] | dose-dependent reduction | 1.5 | – | – | dose-dependent reduction | much reduced inhibitory effect | little or no effect | 3.5 | 4
